Experimental findings from US9188584B2, “Capture agents and related compositions, methods and systems” (CALIFORNIA INSTITUTE OF TECHNOLOGY, priority 2008, dated 2015) are described below.

“And” between values parts separate entries of the source, which are not always exact repeats. Equal values may be shown once. Bounds are passed on as bounds.

Test [1] relates to b(h)CAII. Briefly: Dot blot selectivity/sensitivity assay in porcine serum. It is filed as binding. The note with it: 0.1% serum. The method, then: Dot blots are a common method for detecting proteins. […] For a dot blot, the solution containing the protein of interest is simply dotted onto an absorbent membrane material (typically nitrocellulose). The capture agent (typically an antibody) is labeled with biotin molecule, and applied to the same spot. The spot is rinsed, and then horseradish peroxidase (HRP)-labeled streptavidin is added, binding to the biotin that is bound to the protein. Optical methods are typically utilized to detect this binding. For these tests, Biotin-PEG-NovaTag resin (0.48 mmol/g; Novabiochem) was utilized for bulk synthesis of C-terminal biotin-labeled multi-ligands. After resin cleavage, the crude biotinylated multi-ligand was precipitated with ether and then purified to >98% by C18 reversed phase HPLC. For a dot blot assay, the procedure was as follows: b(h)CAII antigens were prepared as 1 mg/mL stocks in PBS (pH 7.4). A dilution series of antigen was applied to a nitrocellulose membrane, typically ranging from 2 μg to 0.5 ng per spot. […] The membrane was then washed with TBS. […] After washing with TBS for 1 h, 1:3000 Streptavidin-HRP (Abcam, Cambridge, Mass.) prepared in 0.5% milk/TBS was added to the membrane and incubated for 1 h. […]

Test [2] addresses T1, bCAII (Bos taurus, UniProt P00921).
T1 construct: The bCAII (C2522), from bovine erythrocytes, lyophilized powder; purchased Sigma-Aldrich C2522; host or cells: bovine erythrocytes
Briefly: KD determination by surface plasmon resonance (SPR), immobilized bCAII. Set-up: species or system bovine. The note with it: binding affinity to bCAII by SPR, 1:1 binding fit. The text has this: KD determination by surface plasmon resonance (SPR).
In general terms: SPR reads the build-up and loss of mass on a sensor chip optically.

Test [3] addresses hCAII (Homo sapiens, UniProt P00918). Kind of test: biochemical.
Procedure: KD determination by surface plasmon resonance (SPR). […] One flow cell of the biosensor surface (BIACORE CM5) was immobilized with bCAII following standard procedures using 0.25 mg/mL bCAII prepared in 10 mM sodium acetate (pH 5.0) buffer and a 1:1 solution of 0.1 mM NHS and 0.4 mM EDC (Papalia, G. A. et al., 2006). Similarly, a second flow cell was immobilized with hCAII following standard procedures using 0.25 mg/mL hCAII prepared in 10 mM sodium acetate (pH 5.5) buffer (Svedhem, S. et al., 2001). Immobilization levels of ˜4000 RU were achieved using a flow rate of 100 μL/min over 420 s. The remaining two flow cells were left underivatized, to correct for changes in bulk refractive index and to assess nonspecific binding. The running buffer was prepared to contain 10 mM HEPES+150 mM NaCl+0.05% Tween20+3% DMSO, and this buffer was used for all experiments. Prior to the peptide analyte experiment, 8 buffer-alone cycles were completed to establish baseline stabilization. Biligand samples were injected in a concentration series (5 μM to 2 nM) at 100 μL/min flow rate for 120-180 s across the four flow cells. Following background subtraction, the analyte response data was fitted for 1:1 binding affinity using the BiaEvaluation software. […]

T1 sequence (P00921 whole entry): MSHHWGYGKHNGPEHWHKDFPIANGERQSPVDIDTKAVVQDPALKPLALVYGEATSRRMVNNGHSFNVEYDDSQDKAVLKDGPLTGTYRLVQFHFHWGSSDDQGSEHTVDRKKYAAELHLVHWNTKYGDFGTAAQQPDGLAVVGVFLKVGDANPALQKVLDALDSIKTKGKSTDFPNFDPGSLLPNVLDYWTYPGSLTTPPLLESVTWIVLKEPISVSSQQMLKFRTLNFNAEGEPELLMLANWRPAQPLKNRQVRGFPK

In the case of (D-Pra)-kwlwGl-Tz1-kfwlkl, the “reduction of dot blot sensitivity relative to triligand” value in test [1] was above 10 fold.

As usually defined, the Kd is the concentration at which binding is half-saturated. The low end stands for tighter binding, the high end for weaker binding. Regarding `CC[C@@H](C)[C@@H](NC(=O)[C@@H](CC(C)C)NC(=O)[C@@H](CC(N)=O)NC(=O)C(N)CCCCn1cc(C[C@@H](NC(C)=O)C(=O)N[C@H](CCCCN)C(=O)N[C@H](Cc2c[nH]c3ccccc23)C(=O)N[C@H](CC(C)C)C(=O)N[C@H](Cc2c[nH]c3ccccc23)C(=O)NCC(=O)N[C@H](CC(C)C)C(=O)N[C@H](Cc2cn(CCCCC(NC(C)=O)C(=O)N[C@H](CCCCN)C(=O)N[C@H](Cc3ccccc3)C(=O)N[C@H](Cc3c[nH]c4ccccc34)C(=O)N[C@H](CC(C)C)C(=O)N[C@H](CCCCN)C(=O)N[C@H](CC(C)C)C(=O)O)nn2)C(=O)N2CCCCC2)nn1)C(=O)N[C@@H](C(=O)N[C@H](Cc1ccccc1)C(=O)N[C@H](CCCNC(=N)N)C(N)=O)C(C)C` (stereo partly drawn) [rfviln-Tz2-kwlwGl-Tz1-kfwlkl], the Kd was 60 nM and 64 nM in test [2]; 45 nM in test [3].
